# Test results as given in ChEMBL document CHEMBL2010722, “Structure-activity relationship study of beta-carboline derivatives as haspin kinase inhibitors” (Bioorg Med Chem Lett, 2012).
# Experiments:
# [1] = test system: ALK tyrosine kinase receptor (Homo sapiens), Q9UM73 [F1174L]; test: Inhibition of ALK F1174L mutant at 10 uM
# [2] = target: Tyrosine-protein kinase receptor UFO (Homo sapiens) (UniProt P30530); test: Inhibition of AXL at 10 uM
# [3] = target: Tyrosine-protein kinase BTK (Homo sapiens) (UniProt Q06187); test: Inhibition of BTK at 10 uM
# [4] = target: Tyrosine-protein kinase CSK (Homo sapiens) (UniProt P41240); test: Inhibition of CSK at 10 uM
# [5] = test system: Epidermal growth factor receptor (Homo sapiens), P00533 [L858R]; test: Inhibition of EGFR L858R mutant at 10 uM; type: protein assay
# [6] = target: EML4-ALK (Homo sapiens) (UniProt Q9UM73+Q9HC35); test: Inhibition of EML4-ALK at 10 uM; type: protein assay
# [7] = target: Ephrin type-B receptor 2 (Homo sapiens) (UniProt P29323); test: Inhibition of EPHB2 at 10 uM
# [8] = target: Focal adhesion kinase 1 (Homo sapiens) (UniProt Q05397); test: Inhibition of FAK at 10 uM
# [9] = target: Tyrosine-protein kinase Fes/Fps (Homo sapiens) (UniProt P07332); test: Inhibition of FES at 10 uM
# [10] = target: Fibroblast growth factor receptor 1 (Homo sapiens) (UniProt P11362); test: Inhibition of FGFR1 at 10 uM
# [11] = target: Receptor tyrosine-protein kinase erbB-2 (Homo sapiens) (UniProt P04626); test: Inhibition of HER2 at 10 uM
# [12] = target: Insulin receptor (Homo sapiens) (UniProt P06213); test: Inhibition of INSR at 10 uM
# [13] = test system: Hepatocyte growth factor receptor (Homo sapiens), P08581 [Y1235D]; test: Inhibition of MET Y1235D mutant at 10 uM
# [14] = target: Platelet-derived growth factor receptor alpha (Homo sapiens) (UniProt P16234); test: Inhibition of PDGFRa at 10 uM
# [15] = target: Proto-oncogene tyrosine-protein kinase receptor Ret (Homo sapiens) (UniProt P07949); test: Inhibition of RET at 10 uM
# [16] = test system: Proto-oncogene tyrosine-protein kinase receptor Ret (Homo sapiens), P07949 [M918T]; test: Inhibition of RET M918T mutant at 10 uM
# [17] = target: Proto-oncogene tyrosine-protein kinase Src (Homo sapiens) (UniProt P12931); test: Inhibition of SRC at 10 uM
# [18] = Inhibition of SRM at 10 uM
# [19] = target: Tyrosine-protein kinase Tec (Homo sapiens) (UniProt P42680); test: Inhibition of TEC at 10 uM
# [20] = target: Non-receptor tyrosine-protein kinase TNK1 (Homo sapiens) (UniProt Q13470); test: Inhibition of TNK1 at 10 uM
# [21] = target: High affinity nerve growth factor receptor (Homo sapiens) (UniProt P04629); test: Inhibition of TRKA at 10 uM
# [22] = target: Tyrosine-protein kinase ZAP-70 (Homo sapiens) (UniProt P43403); test: Inhibition of ZAP70 at 10 uM
# [23] = target: RAC-beta serine/threonine-protein kinase (Homo sapiens) (UniProt P31751); test: Inhibition of AKT2 at 10 uM
# [24] = target: AMP-activated protein kinase (AMPK) alpha-1/beta-1/gamma-1 (Homo sapiens) (UniProt P54619+Q9Y478+Q13131); test: Inhibition of AMPKalpha1/beta1/gamma1 at 10 uM; type: protein-complex assay
# [25] = target: Aurora kinase C (Homo sapiens) (UniProt Q9UQB9); test: Inhibition of AurC at 10 uM
# [26] = target: Serine/threonine-protein kinase BRSK2 (Homo sapiens) (UniProt Q8IWQ3); test: Inhibition of BRSK2 at 10 uM
# [27] = target: Cyclin-dependent kinase 2/cyclin A (Homo sapiens) (UniProt P24941+P20248+P78396); test: Inhibition of CDK2-Cyclin A2 at 10 uM; type: protein-complex assay
# [28] = target: Serine/threonine-protein kinase Chk2 (Homo sapiens) (UniProt O96017); test: Inhibition of CHK2 at 10 uM
# [29] = target: Mitogen-activated protein kinase kinase kinase 8 (Homo sapiens) (UniProt P41279); test: Inhibition of COT at 10 uM
# [30] = target: Homeodomain-interacting protein kinase 4 (Homo sapiens) (UniProt Q8NE63); test: Inhibition of HIPK4 at 10 uM
# [31] = target: Mitogen-activated protein kinase 8 (Homo sapiens) (UniProt P45983); test: Inhibition of JNK1 at 10 uM
# [32] = target: Dual specificity mitogen-activated protein kinase kinase 1 (Homo sapiens) (UniProt Q02750); test: Inhibition of MAP2K1 at 10 uM
# [33] = target: Mitogen-activated protein kinase kinase kinase kinase 2 (Homo sapiens) (UniProt Q12851); test: Inhibition of MAP4K2 at 10 uM
# [34] = target: MAP/microtubule affinity-regulating kinase 3 (Homo sapiens) (UniProt P27448); test: Inhibition of MARK3 at 10 uM
# [35] = target: Mitogen-activated protein kinase kinase kinase 9 (Homo sapiens) (UniProt P80192); test: Inhibition of MLK1 at 10 uM
# [36] = target: Serine/threonine-protein kinase MRCK beta (Homo sapiens) (UniProt Q9Y5S2); test: Inhibition of MRCKb at 10 uM
# [37] = target: Serine/threonine-protein kinase 4 (Homo sapiens) (UniProt Q13043); test: Inhibition of MST1 at 10 uM
# [38] = target: Serine/threonine-protein kinase Nek1 (Homo sapiens) (UniProt Q96PY6); test: Inhibition of NEK1 at 10 uM
# [39] = Inhibition of p70S6K at 10 uM
# [40] = target: [Pyruvate dehydrogenase (acetyl-transferring)] kinase isozyme 2, mitochondrial (Homo sapiens) (UniProt Q15119); test: Inhibition of PDHK2 at 10 uM
# [41] = target: [Pyruvate dehydrogenase (acetyl-transferring)] kinase isozyme 4, mitochondrial (Homo sapiens) (UniProt Q16654); test: Inhibition of PDHK4 at 10 uM
# [42] = target: Serine/threonine-protein kinase pim-1 (Homo sapiens) (UniProt P11309); test: Inhibition of PIM1 at 10 uM
# [43] = target: Protein kinase C zeta type (Homo sapiens) (UniProt Q05513); test: Inhibition of PKCzeta at 10 uM
# [44] = target: Serine/threonine-protein kinase PLK1 (Homo sapiens) (UniProt P53350); test: Inhibition of PLK1 at 10 uM
# [45] = target: Serine/threonine-protein kinase Sgk1 (Homo sapiens) (UniProt O00141); test: Inhibition of SGK at 10 uM
# [46] = target: PI3-kinase p110-alpha/p85-alpha (Homo sapiens) (UniProt P27986+P42336); test: Inhibition of PIK3CA/PIK3R1 at 10 uM; type: protein-complex assay
# [47] = target: Sphingosine kinase 2 (Homo sapiens) (UniProt Q9NRA0); test: Inhibition of SPHK2 at 10 uM
# Chain of Tyrosine-protein kinase receptor UFO (Homo sapiens) (P30530 whole entry): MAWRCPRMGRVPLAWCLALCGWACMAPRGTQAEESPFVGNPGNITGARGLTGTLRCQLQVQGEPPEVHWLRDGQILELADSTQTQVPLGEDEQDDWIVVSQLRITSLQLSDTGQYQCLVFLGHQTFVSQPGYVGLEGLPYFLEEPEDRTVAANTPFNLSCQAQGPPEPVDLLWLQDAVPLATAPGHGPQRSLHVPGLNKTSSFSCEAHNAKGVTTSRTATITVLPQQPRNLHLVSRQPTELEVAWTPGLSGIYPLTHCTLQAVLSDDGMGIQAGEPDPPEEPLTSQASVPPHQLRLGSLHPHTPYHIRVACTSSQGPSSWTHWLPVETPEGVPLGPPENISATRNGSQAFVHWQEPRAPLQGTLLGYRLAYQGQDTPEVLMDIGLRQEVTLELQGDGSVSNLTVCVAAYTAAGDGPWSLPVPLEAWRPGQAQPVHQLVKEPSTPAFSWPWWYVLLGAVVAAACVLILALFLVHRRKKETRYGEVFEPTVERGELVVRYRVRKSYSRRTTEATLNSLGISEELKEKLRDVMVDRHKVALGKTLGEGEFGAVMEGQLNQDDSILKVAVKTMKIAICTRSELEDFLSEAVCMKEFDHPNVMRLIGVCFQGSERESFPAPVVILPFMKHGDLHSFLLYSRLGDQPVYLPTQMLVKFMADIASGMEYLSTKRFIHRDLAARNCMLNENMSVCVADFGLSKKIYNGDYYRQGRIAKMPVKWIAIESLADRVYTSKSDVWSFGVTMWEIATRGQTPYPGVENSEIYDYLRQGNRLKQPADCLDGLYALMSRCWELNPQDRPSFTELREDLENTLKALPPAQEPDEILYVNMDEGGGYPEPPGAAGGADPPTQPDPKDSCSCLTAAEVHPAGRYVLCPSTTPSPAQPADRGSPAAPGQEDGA
# Chain of Aurora kinase C (Homo sapiens) (Q9UQB9 whole entry): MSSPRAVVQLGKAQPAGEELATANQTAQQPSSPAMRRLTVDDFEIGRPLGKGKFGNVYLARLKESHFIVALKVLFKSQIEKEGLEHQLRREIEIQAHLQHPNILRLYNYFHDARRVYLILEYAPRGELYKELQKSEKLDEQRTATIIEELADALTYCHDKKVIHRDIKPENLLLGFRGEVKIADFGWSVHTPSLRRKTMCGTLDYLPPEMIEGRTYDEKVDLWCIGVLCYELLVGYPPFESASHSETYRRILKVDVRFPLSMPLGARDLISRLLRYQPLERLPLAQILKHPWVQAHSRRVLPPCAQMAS
# Chain of High affinity nerve growth factor receptor (Homo sapiens) (P04629 33-796 limits assumed): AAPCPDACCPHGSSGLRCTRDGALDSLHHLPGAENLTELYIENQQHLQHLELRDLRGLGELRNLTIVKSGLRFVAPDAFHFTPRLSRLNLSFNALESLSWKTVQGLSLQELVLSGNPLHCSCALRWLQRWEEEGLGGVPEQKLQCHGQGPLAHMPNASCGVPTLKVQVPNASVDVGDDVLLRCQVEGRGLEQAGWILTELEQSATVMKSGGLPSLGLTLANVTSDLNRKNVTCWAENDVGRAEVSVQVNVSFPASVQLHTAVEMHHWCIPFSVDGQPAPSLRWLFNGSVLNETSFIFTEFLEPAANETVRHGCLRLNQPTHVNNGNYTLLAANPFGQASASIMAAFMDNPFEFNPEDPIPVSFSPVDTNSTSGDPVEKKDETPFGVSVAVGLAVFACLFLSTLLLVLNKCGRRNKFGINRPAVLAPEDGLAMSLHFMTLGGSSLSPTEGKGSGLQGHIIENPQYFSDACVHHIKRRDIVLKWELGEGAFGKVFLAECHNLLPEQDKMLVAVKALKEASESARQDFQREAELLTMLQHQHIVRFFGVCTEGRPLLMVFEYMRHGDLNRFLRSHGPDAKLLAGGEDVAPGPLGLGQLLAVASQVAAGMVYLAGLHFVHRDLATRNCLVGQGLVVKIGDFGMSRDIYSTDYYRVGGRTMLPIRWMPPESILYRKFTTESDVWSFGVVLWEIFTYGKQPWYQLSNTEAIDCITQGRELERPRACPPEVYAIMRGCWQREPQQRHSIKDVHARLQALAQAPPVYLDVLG
# Chain of Protein kinase C zeta type (Homo sapiens) (Q05513 whole entry): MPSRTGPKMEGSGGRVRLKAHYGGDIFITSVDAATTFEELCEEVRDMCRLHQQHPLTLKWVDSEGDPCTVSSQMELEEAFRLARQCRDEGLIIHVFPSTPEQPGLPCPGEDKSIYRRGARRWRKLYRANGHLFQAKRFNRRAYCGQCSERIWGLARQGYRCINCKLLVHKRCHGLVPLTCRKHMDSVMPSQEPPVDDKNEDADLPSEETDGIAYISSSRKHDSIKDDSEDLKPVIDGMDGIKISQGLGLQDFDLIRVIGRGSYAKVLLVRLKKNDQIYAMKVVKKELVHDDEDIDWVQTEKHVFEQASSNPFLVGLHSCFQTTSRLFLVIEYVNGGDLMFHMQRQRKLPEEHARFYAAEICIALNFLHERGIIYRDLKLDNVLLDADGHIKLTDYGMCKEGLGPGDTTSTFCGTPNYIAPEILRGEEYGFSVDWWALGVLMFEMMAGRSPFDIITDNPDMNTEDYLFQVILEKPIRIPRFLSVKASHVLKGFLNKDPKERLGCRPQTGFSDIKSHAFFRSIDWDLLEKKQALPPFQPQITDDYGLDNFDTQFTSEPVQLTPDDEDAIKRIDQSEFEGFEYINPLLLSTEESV
# Chain of Platelet-derived growth factor receptor alpha (Homo sapiens) (P16234 whole entry): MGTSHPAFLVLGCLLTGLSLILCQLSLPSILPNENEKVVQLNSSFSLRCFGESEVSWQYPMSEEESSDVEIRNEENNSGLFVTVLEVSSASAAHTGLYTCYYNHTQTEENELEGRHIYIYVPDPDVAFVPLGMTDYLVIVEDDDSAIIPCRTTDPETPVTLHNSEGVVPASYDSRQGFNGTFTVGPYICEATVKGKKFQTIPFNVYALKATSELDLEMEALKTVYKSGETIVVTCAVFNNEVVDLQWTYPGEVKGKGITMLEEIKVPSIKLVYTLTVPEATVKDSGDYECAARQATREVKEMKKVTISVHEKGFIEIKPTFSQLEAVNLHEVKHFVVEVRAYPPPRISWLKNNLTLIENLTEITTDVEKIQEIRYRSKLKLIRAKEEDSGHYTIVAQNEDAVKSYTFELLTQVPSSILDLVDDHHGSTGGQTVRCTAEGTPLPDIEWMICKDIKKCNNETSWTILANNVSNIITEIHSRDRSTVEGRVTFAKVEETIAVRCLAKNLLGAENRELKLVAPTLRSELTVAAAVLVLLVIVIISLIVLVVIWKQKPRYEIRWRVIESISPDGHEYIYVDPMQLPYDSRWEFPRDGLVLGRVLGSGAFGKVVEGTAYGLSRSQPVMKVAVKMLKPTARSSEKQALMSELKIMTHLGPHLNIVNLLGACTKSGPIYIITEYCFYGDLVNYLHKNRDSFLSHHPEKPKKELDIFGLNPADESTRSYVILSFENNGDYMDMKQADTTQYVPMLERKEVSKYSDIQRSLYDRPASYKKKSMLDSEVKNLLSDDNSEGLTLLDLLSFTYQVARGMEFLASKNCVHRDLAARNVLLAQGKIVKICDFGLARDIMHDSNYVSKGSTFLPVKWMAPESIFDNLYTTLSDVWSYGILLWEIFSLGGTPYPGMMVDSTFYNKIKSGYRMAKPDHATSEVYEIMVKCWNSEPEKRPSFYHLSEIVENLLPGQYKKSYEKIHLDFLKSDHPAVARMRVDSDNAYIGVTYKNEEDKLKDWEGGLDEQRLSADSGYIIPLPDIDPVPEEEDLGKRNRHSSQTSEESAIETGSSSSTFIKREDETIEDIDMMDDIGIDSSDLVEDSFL
# Chain of Serine/threonine-protein kinase PLK1 (Homo sapiens) (P53350 whole entry): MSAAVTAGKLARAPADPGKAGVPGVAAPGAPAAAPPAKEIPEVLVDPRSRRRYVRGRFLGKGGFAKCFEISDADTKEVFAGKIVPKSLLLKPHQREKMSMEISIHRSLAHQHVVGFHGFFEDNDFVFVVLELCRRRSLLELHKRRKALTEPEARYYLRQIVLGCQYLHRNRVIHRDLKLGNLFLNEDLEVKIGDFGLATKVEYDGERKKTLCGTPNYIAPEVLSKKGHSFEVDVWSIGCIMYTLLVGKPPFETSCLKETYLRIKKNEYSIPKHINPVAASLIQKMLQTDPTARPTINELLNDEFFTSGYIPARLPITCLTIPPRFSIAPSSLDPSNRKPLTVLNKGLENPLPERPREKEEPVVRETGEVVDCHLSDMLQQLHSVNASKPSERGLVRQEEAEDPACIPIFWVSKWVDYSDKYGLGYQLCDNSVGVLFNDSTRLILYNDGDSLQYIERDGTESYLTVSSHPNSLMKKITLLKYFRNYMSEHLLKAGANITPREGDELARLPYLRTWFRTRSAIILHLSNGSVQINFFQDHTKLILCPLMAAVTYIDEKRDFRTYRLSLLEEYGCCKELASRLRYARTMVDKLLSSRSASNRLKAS
# Chain of Mitogen-activated protein kinase 8 (Homo sapiens) (P45983 whole entry): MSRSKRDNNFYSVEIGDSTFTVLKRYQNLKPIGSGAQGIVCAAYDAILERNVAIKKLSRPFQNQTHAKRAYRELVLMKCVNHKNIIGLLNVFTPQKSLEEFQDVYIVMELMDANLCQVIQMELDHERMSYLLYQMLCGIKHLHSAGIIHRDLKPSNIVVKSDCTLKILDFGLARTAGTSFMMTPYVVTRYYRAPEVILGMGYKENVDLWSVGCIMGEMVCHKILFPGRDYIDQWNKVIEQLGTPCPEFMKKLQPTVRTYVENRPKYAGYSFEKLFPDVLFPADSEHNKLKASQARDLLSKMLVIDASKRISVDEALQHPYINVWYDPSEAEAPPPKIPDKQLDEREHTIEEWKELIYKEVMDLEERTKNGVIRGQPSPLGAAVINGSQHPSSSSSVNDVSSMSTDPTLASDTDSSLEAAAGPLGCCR
# Chain of Serine/threonine-protein kinase pim-1 (Homo sapiens) (P11309 whole entry, looked up): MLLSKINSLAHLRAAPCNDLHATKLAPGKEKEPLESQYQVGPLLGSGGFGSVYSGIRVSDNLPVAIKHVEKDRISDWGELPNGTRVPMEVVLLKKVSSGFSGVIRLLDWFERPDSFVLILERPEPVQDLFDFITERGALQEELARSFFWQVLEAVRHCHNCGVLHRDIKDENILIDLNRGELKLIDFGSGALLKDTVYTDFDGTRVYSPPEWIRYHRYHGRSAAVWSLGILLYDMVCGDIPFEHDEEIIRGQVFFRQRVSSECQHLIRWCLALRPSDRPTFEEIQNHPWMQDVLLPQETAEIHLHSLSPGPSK
smiles,measurement,setting,value
COc1ccc2c3ccnc(C(F)(F)F)c3n(CCCCN)c2c1,inhibition,[1],9%
same,inhibition,[2],34%
same,inhibition,[3],0%
same,inhibition,[4],5%
same,inhibition,[5],10%
same,inhibition,[6],12%
same,inhibition,[7],0%
same,inhibition,[8],0%
same,inhibition,[9],4%
same,inhibition,[10],5%
same,inhibition,[11],0%
same,inhibition,[12],0%
same,inhibition,[13],2%
same,inhibition,[14],27%
same,inhibition,[15],11%
same,inhibition,[16],9%
same,inhibition,[17],17%
same,inhibition,[18],0%
same,inhibition,[19],2%
same,inhibition,[20],10%
same,inhibition,[21],8%
same,inhibition,[22],3%
same,inhibition,[23],4%
same,inhibition,[24],16%
same,inhibition,[25],1%
same,inhibition,[26],30%
same,inhibition,[27],65%
same,inhibition,[28],27%
same,inhibition,[29],7%
same,inhibition,[30],28%
same,inhibition,[31],44%
same,inhibition,[32],16%
same,inhibition,[33],75%
same,inhibition,[34],47%
same,inhibition,[35],0%
same,inhibition,[36],27%
same,inhibition,[37],14%
same,inhibition,[38],5%
same,inhibition,[39],76%
same,inhibition,[40],0%
same,inhibition,[41],34%
same,inhibition,[42],91%
same,inhibition,[43],35%
same,inhibition,[44],0%
same,inhibition,[45],34%
same,inhibition,[46],13%
same,inhibition,[47],6%
